# Test results as given in patent US20240165047A1, “Use Of Honokiol In Preparation Of Drug For Treating Meningioma” (Chengdu Jinrui Foundation Biotech Co., Ltd., priority 2021, published 2024).
# Assays:
# meningioma = assay: Phase I clinical trial of honokiol liposome for injection: cranial MR re-examination of meningioma patients, RANO standard; assay type: in vivo, human; conditions: summary statement of the clinical trials
# Source text: (§1) Description of the Subject: • person; • on Jan. […] 27, 2018, the subject underwent the resection of a deep skull bottom lesion, endothelial meningoma, and local lesion being hemangioma-type meningoma, accompanied by bleeding, showing the non-typical meningioma, infiltrating bone tissue, comprehensive to malignant meningoma; immunohistochemistry: EMA (positive), PR (scattered in a little positive), SSTR (focal positive), CD34 (blood vessel positive), CD99 (+), S100 (-), Syn (-), CgA (-), CK (occasionally positive), Ki67 (about 8-20%); • in February 2019, the subject was treated for intracranial infection; • in June 2019, the subject received whole brain radiotherapy; • on Mar. 5, 2021, the subject re-examined the cranial MR and the tumor recurred; in order to further treat, at the outpatient of Beijing […] […]
# [1] = Phase I clinical trial of clinical safety and tolerance of honokiol liposome for injection, safety analysis set (patients with advanced malignant solid tumors); assay type: in vivo, human; conditions: summary statement of the clinical trials
# Source text: as §1
compound,measurement,setting,value
"C=CCc1ccc(O)c(-c2ccc(O)c(CC=C)c2)c1 [honokiol, 3′,5-di-2-propenyl-1,1′-biphenyl-2,4′-diphenol]",overall efficacy against meningioma in clinical trials,meningioma,effectively treat the meningioma
same,overall safety and tolerance in clinical trials,[1],good safety and tolerance
